According to patent publication US10941126B2, “Bridged bicycloalkyl-substituted aminothiazoles and their methods of use” (Temple University—Of The Commonwealth System of Higher …, priority 2017, dated 2021):

Legend:
CDK9 = biological target: T1, CDK9 (Homo sapiens, UniProt P50750); test: Kinase enzymatic assay (Nanosyn, microfluidic), IC50 curves against CDKs; type: biochemical
T1 construct: Nanosyn (contract assay)
Procedure: (§1) HDAC inhibitory activity assays were performed using FLUOR DE LYS® HDAC fluorometric activity assay kit from Enzo following the manufacturer's instructions. GloMax®-Multi Detection System (Promega) was used to read the fluorescence signals. Histone methyltransferase and demethylase enzymatic assays were performed by BPS Bioscience at 10 μM in duplicates. Kinase enzymatic assays were performed by Nanosyn using microfluidic technology. 250 kinome screening was done in duplicates using MC180295 at 1 μM. IC50 curves against 10 CDKs were created for MC180295. The human kinome tree was annotated using the online Kinome Render software (Chartier, M., Chénard, T., Barker, J., and Najmanovich, R. (2013). PeerJ 1, e126). Isotope kinase assay was performed using previously described methods (Garriga, J., Peng, J., Parreño, M., Price, D. H., Henderson, E. E., and Graña, X. (1998). Oncogene 17, 3093-3102) using recombinant active full-length CDK9/CyclinT1 (Millipore, 14-685) and SMARCA4 (Abcam, ab82237) in the presence or absence of CDK9 inhibitors.

panel of 250 kinases = test: 250 kinome screening at 1 μM; type: biochemical, human
Procedure: as §1

GSK-3a = biological target: T2, GSK-3a (Homo sapiens, UniProt P49840); test: 250 kinome screening at 1 μM; type: biochemical
T2 construct: Nanosyn (contract assay)
Procedure: as §1

GSK-3β = biological target: T3, GSK-3β (Homo sapiens, UniProt P49841); test: 250 kinome screening at 1 μM; type: biochemical
T3 construct: Nanosyn (contract assay)
Procedure: as §1

[1] = tested on: cancer cell lines and normal IMR90 cells; test: Anti-proliferation assay (trypan blue exclusion); type: cell-based, human; conditions: four days after one-time exposure
Procedure: Cells were seeded in 96-well plates at 40% confluency in triplicates. Fresh medium was changed the next day and drugs were added directly. After mixing thoroughly, plates were cultured in a 37° C. incubator for two more days. Drug-free fresh medium was changed the fourth day. The cells were collected on day 5 by trypsin, suspended in medium, mixed with trypan blue (1:1 ratio), and counted using LUNA II automated cell counter. Each sample was counted at least three times and the average numbers were used for the analysis. Each treatment condition was performed at least in triplicates.

HL60 cell line = test: HL60 cell differentiation (CD11b); type: cell-based, human; conditions: four-day single-dose treatment
Procedure: For drug screening and dose response validations, GFP positive cells were detected by Millipore Guava flow cytometer (EMD, Millipore). Cell cycle analysis was performed using BD FACSCalibur™ by propidium iodide staining four days after drug treatment. Sub-G1 population percentage was also included to measure apoptotic cell proportion. Data were analyzed using FlowJo software version 10.2. For the cell differentiation analysis, cells were washed and stained with propidium iodide (PI), CD11 b (BD Biosciences, #562793) and the isotype control IgG (BD Biosciences, #555748). Flow cytometry analysis was performed on a Millipore Guava flow cytometer (EMD, Millipore). For the ID8 in vivo experiments, ascites was drained from 5-10 mice per group and incubated in ACK buffer (Thermo Fisher) to lyse red blood cells for 10 minutes, then washed. Ascites from each mouse was individually lysed and prepared for flow cytometry. Mononuclear cells collected were cultured for 4 hours in RPMI with 5% Fetal Bovine Serum and in the presence of Cell Stimulation Cocktail (plus protein transport inhibitors; eBioscience). […] Flow cytometry acquisition was performed on an LSRII cytometer (BD Biosciences) and data were analyzed using FlowJo software version 10.2.

SW48 and HCT116 cells = test: qPCR for ERV expression; type: cell-based, human; conditions: Four-day treatment
Procedure: Total RNA was extracted using TRIzol reagent (Invitrogen) following the manufacturer's protocol and RNA concentrations were measured using Nanodrop. cDNAs were synthesized using High Capacity cDNA Reverse Transcription Kit (ThermoFisher) and qPCR was performed using either ready-made TaqMan® assays or SYBR-green using custom-designed primers. All the data were analyzed using Applied Biosystems software (StepOne™ Software V2.3). For all experiments, relative expression levels of the target genes were determined by calculating the 2^−ΔΔCt values. All experiments were performed at least in triplicates. Either GAPDH or 18S rRNA was used as an internal normalization control for protein coding genes. RPLPO was used as an internal normalization control for ERVs. All SYBR-green primers were described previously and are listed in Table 1 along with TaqMan® probes used.

SMARCA4 = test: Phosphoproteomics (LC-MS/MS) in YB5 cells; type: cell-based, human; conditions: 500 nM, 4 hr
Procedure: YB5 cells were treated with or without 500 nM MC180295 for 4 hours. Nuclear fraction was enriched using a hypotonic lysis buffer as previously described (Boden, G., Homko, C., Barrero, C. A., Stein, T. P., Chen, X., Cheung, P., Fecchio, C., Koller, S., and Merali, S. (2015), Sci Transl Med 7, 304-307). Proteins from the nuclear fraction were extracted with M-PER Mammalian Protein Extraction Reagent (Thermo Scientific, #78501) in the presence of protease and phosphatase inhibitors (Halt™ Protease Inhibitor Cocktail, #87785 and Halt™ Phosphatase Inhibitor Single-Use Cocktail, #78428). Phosphoproteins were enriched from 500 μg of nuclear extracted proteins, using a phosphoprotein purification kit (QIAGEN, #37101). Both samples were processed using in-StageTip method for digestion and peptide purification before performing LC-MS/MS proteomics analysis. The mass spectrometry proteomics data have been deposited to the ProteomeXchange Consortium via the PRIDE (Vizcaino, J. A., Csordas, A., del-Toro, N., Dianes, J. A., Griss, J., Lavidas, I., Mayer, G., Perez-Riverol, Y., Reisinger, F., Tement, T., et al. (2016). 2016 update of the PRIDE database and its related tools. Nucleic Acids Res 44, D447-456) partner repository with the dataset identifier PXD008040. […]

T1 sequence (P50750 whole entry): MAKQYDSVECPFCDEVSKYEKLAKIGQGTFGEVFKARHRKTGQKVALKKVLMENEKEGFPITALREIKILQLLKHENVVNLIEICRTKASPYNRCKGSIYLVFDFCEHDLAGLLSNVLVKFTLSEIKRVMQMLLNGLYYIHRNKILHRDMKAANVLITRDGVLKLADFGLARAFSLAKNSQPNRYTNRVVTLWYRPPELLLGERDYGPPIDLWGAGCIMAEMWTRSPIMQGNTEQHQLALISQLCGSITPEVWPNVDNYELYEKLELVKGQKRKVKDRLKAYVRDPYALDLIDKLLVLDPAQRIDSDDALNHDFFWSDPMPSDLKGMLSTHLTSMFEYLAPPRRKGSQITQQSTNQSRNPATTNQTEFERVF
T1 sequence (O60563 whole entry partner): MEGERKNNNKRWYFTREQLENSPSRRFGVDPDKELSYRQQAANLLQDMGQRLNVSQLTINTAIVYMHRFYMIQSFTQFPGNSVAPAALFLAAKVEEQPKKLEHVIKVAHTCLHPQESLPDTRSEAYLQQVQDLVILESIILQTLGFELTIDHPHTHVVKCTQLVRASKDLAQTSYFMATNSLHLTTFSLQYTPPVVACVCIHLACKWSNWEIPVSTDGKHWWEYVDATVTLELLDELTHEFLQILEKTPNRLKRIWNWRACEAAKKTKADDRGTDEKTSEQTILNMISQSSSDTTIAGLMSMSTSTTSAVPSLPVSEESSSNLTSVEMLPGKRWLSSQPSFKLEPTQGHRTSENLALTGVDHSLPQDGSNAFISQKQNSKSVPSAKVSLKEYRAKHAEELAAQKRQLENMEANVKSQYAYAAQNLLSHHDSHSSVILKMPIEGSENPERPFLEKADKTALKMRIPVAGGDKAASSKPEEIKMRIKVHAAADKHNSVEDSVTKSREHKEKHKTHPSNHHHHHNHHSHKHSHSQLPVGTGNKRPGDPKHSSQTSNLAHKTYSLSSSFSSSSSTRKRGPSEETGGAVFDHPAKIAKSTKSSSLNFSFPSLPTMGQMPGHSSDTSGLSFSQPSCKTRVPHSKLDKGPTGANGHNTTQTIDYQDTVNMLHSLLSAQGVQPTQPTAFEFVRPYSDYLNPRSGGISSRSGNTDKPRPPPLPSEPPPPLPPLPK
T2 sequence (P49840 whole entry): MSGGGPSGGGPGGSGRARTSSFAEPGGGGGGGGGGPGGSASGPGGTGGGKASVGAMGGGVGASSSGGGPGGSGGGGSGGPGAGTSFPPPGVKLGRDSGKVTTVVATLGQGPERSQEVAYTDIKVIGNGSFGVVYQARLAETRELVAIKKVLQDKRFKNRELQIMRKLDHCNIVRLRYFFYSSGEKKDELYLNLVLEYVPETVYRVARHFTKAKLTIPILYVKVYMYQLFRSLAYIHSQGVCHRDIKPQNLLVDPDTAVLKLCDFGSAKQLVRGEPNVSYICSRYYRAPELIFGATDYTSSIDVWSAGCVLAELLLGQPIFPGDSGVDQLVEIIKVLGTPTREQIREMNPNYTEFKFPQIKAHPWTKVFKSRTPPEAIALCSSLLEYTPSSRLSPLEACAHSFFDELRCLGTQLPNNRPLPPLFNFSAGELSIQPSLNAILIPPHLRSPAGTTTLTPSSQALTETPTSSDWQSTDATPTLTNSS
T3 sequence (P49841 whole entry): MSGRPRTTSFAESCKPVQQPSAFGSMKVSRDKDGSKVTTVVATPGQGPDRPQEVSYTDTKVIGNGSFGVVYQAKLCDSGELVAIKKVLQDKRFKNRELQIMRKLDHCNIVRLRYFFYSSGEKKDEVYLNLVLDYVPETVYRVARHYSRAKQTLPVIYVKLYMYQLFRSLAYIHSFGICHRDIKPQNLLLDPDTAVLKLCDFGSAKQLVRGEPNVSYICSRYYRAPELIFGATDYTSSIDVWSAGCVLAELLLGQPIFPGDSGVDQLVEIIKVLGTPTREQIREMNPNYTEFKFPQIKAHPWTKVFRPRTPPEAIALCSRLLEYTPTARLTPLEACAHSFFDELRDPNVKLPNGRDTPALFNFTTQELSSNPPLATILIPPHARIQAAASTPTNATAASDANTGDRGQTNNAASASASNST

IC50 (CDK9): 5 nM
selectivity for CDK9 over other CDKs (CDK9; 10 different CDKs): at least 22 fold
inhibition (GSK-3a): inhibited
inhibition (GSK-3β): inhibited
Structure (SMILES): Nc1nc(N[C@H]2CC3CCC2C3)sc1C(=O)c1ccccc1[N+](=O)[O-] (stereo partly drawn) [MC180295]
selectivity against a panel of 250 kinases (panel of 250 kinases): highly selective against CDKs
reduction of proliferation, cancer cells vs normal cells (IMR90) [1]: more effective in reducing proliferation of cancer cells than normal control cells
differentiation marker CD11b (HL60 cell line): significant induction
ERV expression (SW48 and HCT116 cells): activated the expression of several ERVs
phosphorylation of SMARCA4 serine/threonine residues (SMARCA4): dephosphorylated
